Source: ChEMBL document CHEMBL1201862, “PubChem BioAssay data set” (2004)
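Each compound was tested at five concentrations against cells in 96-well plates for 48 hours. The concentration for 50% growth inhibition is given as GI50.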 Activity calls are given as the source filed them. Rule as the data show it: active = GI50 up to about 1.1 µM and inactive = higher.

How the values were obtained:
Experiment in all cases: NCI-60 cell line screen, 48 h
[1] = test system: NCI-H226
[2] = test system: NCI-H460
[3] = test system: 786-0
[4] = test system: COLO 205
[5] = test system: HL-60
[6] = test system: UO-31
[7] = test system: SK-MEL-5
[8] = test system: Malme-3M
[9] = test system: SF-295
[10] = test system: LOX IMVI
[11] = test system: CAKI-1
[12] = test system: NCI/ADR-RES
[13] = test system: RPMI-8226
[14] = test system: A549
[15] = test system: SK-OV-3
[16] = test system: SK-MEL-28
[17] = test system: KM-20L2
[18] = test system: HCT-15
[19] = test system: SK-MEL-2
[20] = test system: Hs-578T

Question: Which results are given for O=C1/C(=C/c2ccccc2)CN(C(=O)/C=C/c2ccccc2)C/C1=C\c1ccccc1?
Answer: GI50 [1]: 18.8 µM (inactive); GI50 [2]: 11.5 µM (inactive); GI50 [3]: 4.09 µM (inactive); GI50 [4]: 4.92 µM (inactive); GI50 [5]: 4.44 µM (inactive); GI50 [6]: 12.4 µM (inactive); GI50 [7]: 8.38 µM (inactive); GI50 [8]: 16.1 µM (inactive); GI50 [9]: 4.79 µM (inactive); GI50 [10]: 2.55 µM (inactive); GI50 [11]: 23.7 µM (inactive); GI50 [12]: 1.86 µM (inactive); GI50 [13]: 1.07 µM (active); GI50 [14]: 11.1 µM (inactive); GI50 [15]: 27.7 µM (inactive); GI50 [16]: 7.62 µM (inactive); GI50 [17]: 12.8 µM (inactive); GI50 [18]: 6.17 µM; GI50 [19]: 21.4 µM (inactive); GI50 [20]: 4.27 µM (inactive)

Question: Which results are given for Cc1ccc2nc(NC(=O)C(=O)CC(=O)c3cccc4ccccc34)sc2c1?
Answer: GI50 [1]: 19.8 µM (inactive); GI50 [2]: 52 µM (inactive); GI50 [3]: 20.2 µM (inactive); GI50 [4]: 60.4 µM (inactive); GI50 [5]: > 100 µM (inactive); GI50 [6]: > 100 µM (inactive); GI50 [7]: 23.1 µM (inactive); GI50 [8]: 27 µM (inactive); GI50 [9]: 19.9 µM (inactive); GI50 [10]: 32.2 µM (inactive); GI50 [11]: 22.2 µM (inactive); GI50 [13]: 91.8 µM (inactive); GI50 [14]: 33.6 µM (inactive); GI50 [15]: 19.2 µM (inactive); GI50 [16]: 48.4 µM (inactive); GI50 [17]: 46.3 µM (inactive); GI50 [18]: 59.2 µM; GI50 [19]: 35.5 µM (inactive)

Question: How did the GI50 [1] turn out when O=C1c2cccc3cc([N+](=O)[O-])cc(c23)C(=O)N1CCCN1CCN(CCCN2C(=O)c3cccc4cc([N+](=O)[O-])cc(c34)C2=O)CC1 was run?
Answer: 0.0702 µM (active)

Question: What about the GI50 [2] of the same compound?
Answer: 0.0142 µM (active)

Question: And the GI50 [3]?
Answer: 0.0594 µM (active)

Question: And the GI50 [4]?
Answer: 0.108 µM (active)

Question: And the GI50 [5]?
Answer: 0.34 µM (active)

Question: What about the GI50 [6] of the same compound?
Answer: 0.0695 µM (active)

Question: And the GI50 [7]?
Answer: 0.0853 µM (active)

Question: What about the GI50 [8] of the same compound?
Answer: 0.571 µM (active)

Question: And the GI50 [9]?
Answer: 0.0386 µM (active)

Question: What about the GI50 [10] of the same compound?
Answer: 0.0234 µM (active)

Question: What about the GI50 [11] of the same compound?
Answer: 0.0293 µM (active)

Question: What about the GI50 [13] of the same compound?
Answer: 0.0887 µM (active)

Question: What about the GI50 [14] of the same compound?
Answer: 0.0381 µM (active)

Question: And the GI50 [15]?
Answer: 2.59 µM (inactive)

Question: What about the GI50 [17] of the same compound?
Answer: 0.45 µM (active)

Question: And the GI50 [18]?
Answer: 0.0495 µM

Question: What about the GI50 [19] of the same compound?
Answer: 0.23 µM (active)

Question: Which GI50 [1] does the source give for CCCOC(=O)C1CCC(=O)N1C(=O)C(C)Cl (stereo unspecified) here?
Answer: > 100 µM (inactive)

Question: And the GI50 [2]?
Answer: > 100 µM (inactive)

Question: And the GI50 [3]?
Answer: > 100 µM (inactive)

Question: What about the GI50 [4] of the same compound?
Answer: > 100 µM (inactive)

Question: What about the GI50 [5] of the same compound?
Answer: > 100 µM (inactive)

Question: And the GI50 [6]?
Answer: > 100 µM (inactive)

Question: And the GI50 [7]?
Answer: > 100 µM (inactive)

Question: What about the GI50 [8] of the same compound?
Answer: > 100 µM (inactive)

Question: What about the GI50 [9] of the same compound?
Answer: > 100 µM (inactive)

Question: What about the GI50 [10] of the same compound?
Answer: > 100 µM (inactive)

Question: And the GI50 [11]?
Answer: > 100 µM (inactive)

Question: What about the GI50 [13] of the same compound?
Answer: > 100 µM (inactive)

Question: And the GI50 [14]?
Answer: > 100 µM (inactive)

Question: What about the GI50 [15] of the same compound?
Answer: > 100 µM (inactive)

Question: And the GI50 [16]?
Answer: > 100 µM (inactive)

Question: What about the GI50 [17] of the same compound?
Answer: > 100 µM (inactive)

Question: What about the GI50 [18] of the same compound?
Answer: > 100 µM

Question: And the GI50 [19]?
Answer: > 100 µM (inactive)

Question: Which GI50 [1] does the source give for O=C(O)CNCc1c2ccccc2[n+]([O-])c2ccccc12 here?
Answer: > 100 µM (inactive)

Question: What about the GI50 [2] of the same compound?
Answer: 72.4 µM (inactive)

Question: What about the GI50 [3] of the same compound?
Answer: 58.2 µM (inactive)

Question: And the GI50 [4]?
Answer: > 100 µM (inactive)

Question: What about the GI50 [5] of the same compound?
Answer: 33.5 µM (inactive)

Question: What about the GI50 [6] of the same compound?
Answer: 21.1 µM (inactive)

Question: What about the GI50 [7] of the same compound?
Answer: 48.1 µM (inactive)

Question: And the GI50 [8]?
Answer: > 100 µM (inactive)

Question: And the GI50 [9]?
Answer: > 100 µM (inactive)

Question: And the GI50 [10]?
Answer: 36.6 µM (inactive)

Question: And the GI50 [11]?
Answer: > 100 µM (inactive)

Question: And the GI50 [13]?
Answer: 30.8 µM (inactive)

Question: What about the GI50 [14] of the same compound?
Answer: > 100 µM (inactive)

Question: What about the GI50 [15] of the same compound?
Answer: > 100 µM (inactive)

Question: What about the GI50 [16] of the same compound?
Answer: 75.7 µM (inactive)

Question: And the GI50 [17]?
Answer: 42.4 µM (inactive)

Question: And the GI50 [18]?
Answer: 30.8 µM

Question: What about the GI50 [19] of the same compound?
Answer: > 100 µM (inactive)

Question: Which results are given for COc1ccc(OC)c(/C=C2\CCc3ccccc3C2=O)c1?
Answer: GI50 [1]: 3.72 µM (inactive); GI50 [2]: 3.44 µM (inactive); GI50 [3]: 3.03 µM (inactive); GI50 [4]: 3.18 µM (inactive); GI50 [5]: 1.68 µM (inactive); GI50 [7]: 3.17 µM (inactive); GI50 [8]: 3.72 µM (inactive); GI50 [9]: 3.35 µM (inactive); GI50 [10]: 4.26 µM (inactive); GI50 [11]: 4.65 µM (inactive); GI50 [13]: 3.6 µM (inactive); GI50 [14]: 2.25 µM (inactive); GI50 [15]: 2.58 µM (inactive); GI50 [16]: 5.12 µM (inactive); GI50 [17]: 2.9 µM (inactive); GI50 [18]: 3.91 µM; GI50 [19]: 2.93 µM (inactive)

Question: How did the GI50 [1] turn out when COC(=O)C(=O)C(C#N)c1cccc(Cl)c1 (stereo unspecified) was run?
Answer: > 100 µM (inactive)

Question: And the GI50 [2]?
Answer: > 100 µM (inactive)

Question: What about the GI50 [3] of the same compound?
Answer: > 100 µM (inactive)

Question: What about the GI50 [4] of the same compound?
Answer: > 100 µM (inactive)

Question: What about the GI50 [5] of the same compound?
Answer: > 100 µM (inactive)

Question: And the GI50 [6]?
Answer: > 100 µM (inactive)

Question: And the GI50 [7]?
Answer: > 100 µM (inactive)

Question: And the GI50 [8]?
Answer: > 100 µM (inactive)

Question: And the GI50 [9]?
Answer: > 100 µM (inactive)

Question: And the GI50 [10]?
Answer: > 100 µM (inactive)

Question: And the GI50 [11]?
Answer: > 100 µM (inactive)

Question: And the GI50 [13]?
Answer: > 100 µM (inactive)

Question: And the GI50 [14]?
Answer: > 100 µM (inactive)

Question: What about the GI50 [15] of the same compound?
Answer: > 100 µM (inactive)

Question: And the GI50 [16]?
Answer: > 100 µM (inactive)

Question: And the GI50 [17]?
Answer: > 100 µM (inactive)

Question: And the GI50 [18]?
Answer: > 100 µM

Question: What about the GI50 [19] of the same compound?
Answer: > 100 µM (inactive)
